Experimental data published in BindingDB's records for doi:10.1021/acsmedchemlett.3c00236 (Smith, Gambrell & Russell, 2023).

Experiment: Inhibition of NLRP3 in human THP-1 cells assessed as reduction in pyroptosis preincubated for 3 hrs followed by nigericin addition and measured after 1 hr by resazurin dye based microplate reader analysis

IC50: 0.6 nM
SMILES: CCN1CCC[C@H](Nc2nc3nc(-c4c(C)cc(Cl)c(F)c4O)ccc3o2)C1
